Source: paper PMC2568824, “Dibutyltin Disrupts Glucocorticoid Receptor Function and Impairs Glucocorticoid-Induced Suppression of Cytokine Production” (PLoS ONE, 2008)
pIC50: −log10 of the molar value.

Experiments:
[1] = target: T1, glucocorticoid receptor (GR-α) (Homo sapiens, UniProt P04150); parameters: gene NR3C1
T1 sequence (P04150 1-777): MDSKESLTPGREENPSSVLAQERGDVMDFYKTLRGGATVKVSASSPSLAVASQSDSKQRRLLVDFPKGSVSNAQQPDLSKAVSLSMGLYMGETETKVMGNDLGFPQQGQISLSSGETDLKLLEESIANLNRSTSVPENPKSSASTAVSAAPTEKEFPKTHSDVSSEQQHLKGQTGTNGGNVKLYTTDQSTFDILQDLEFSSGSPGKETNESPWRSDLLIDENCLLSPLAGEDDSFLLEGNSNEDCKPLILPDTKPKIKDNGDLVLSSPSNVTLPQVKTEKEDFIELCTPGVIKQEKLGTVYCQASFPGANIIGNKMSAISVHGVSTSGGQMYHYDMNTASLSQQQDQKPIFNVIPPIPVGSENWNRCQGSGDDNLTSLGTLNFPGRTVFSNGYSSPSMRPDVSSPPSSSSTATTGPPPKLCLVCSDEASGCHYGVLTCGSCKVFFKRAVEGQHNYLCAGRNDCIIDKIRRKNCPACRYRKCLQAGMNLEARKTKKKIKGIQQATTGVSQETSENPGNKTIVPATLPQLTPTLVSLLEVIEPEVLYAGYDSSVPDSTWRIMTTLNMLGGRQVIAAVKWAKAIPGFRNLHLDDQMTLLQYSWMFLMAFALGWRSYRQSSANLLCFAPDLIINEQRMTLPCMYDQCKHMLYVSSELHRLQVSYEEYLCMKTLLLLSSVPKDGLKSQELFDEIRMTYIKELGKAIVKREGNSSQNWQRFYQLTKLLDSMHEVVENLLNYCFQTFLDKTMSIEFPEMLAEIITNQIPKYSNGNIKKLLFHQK

[2] = target: T1, glucocorticoid receptor (GR-α); assay: inhibition of [3H]-dexamethasone binding in intact GR-transfected HEK-293 cells, overnight DBT preincubation ([…] for […] inhibition without preincubation); also transactivation reporter; type: cell-based; parameters: gene NR3C1; human GR-α, transiently expressed in HEK-293 cells

Row | Molecule | radioligand binding (10 nM [3H]-dexamethasone) and displacement by unlabeled dex [1] | pIC50 [2]
1 | C[C@@H]1C[C@H]2[C@@H]3CCC4=CC(=O)C=C[C@]4(C)[C@@]3(F)[C@@H](O)C[C@]2(C)[C@@]1(O)C(=O)CO [Dex, dexamethasone] | Addition of unlabeled dexamethasone revealed a typical displacement pattern of tritiated dexamethasone in the presence or absence of DBT | 
2 | dibutyltin [DBT] |  | ~7.30
